Laboratory results taken from patent US10023575B2, “Cyclic ether derivatives of pyrazolo[1,5-a]pyrimidine-3-carboxyamide” (Boehringer Ingelheim International GmbH, priority 2015, dated 2018).

Tests used:
PDE 2A = PDE 2A (Homo sapiens (Human), UniProt O00408); assay: Phosphodiesterase (PDE) 2A assay with fluorescent substrate (IMAP, fluorescence polarization); format: biochemical; details: labeled cAMP 30 nM, read-out: PDE2 IC50
Method: (§1) The PDE reaction cleaves cAMP to AMP. The IMAP system (Molecular Device) using fluorescence polarization (FP) as detection principle was used to measure enzyme activity. A fluorescent labeled cAMP was used as substrate for the reaction, generating a labeled AMP. The fluorescent AMP binds specifically to the large M(III)-based nano-particles which reduces the rotational speed of the substrate and thus increases its polarization.
(§2) The inhibition of PDE 2A or 10 enzyme activity was assessed using IMAP-Phosphodiesterase-cAMP fluorescence labeled substrate (Molecular Devices, Order No. R7506), IMAP TR-FRET screening express (Molecular Devices, Order No. R8160, the TR-FRET component will not be used) and PDE 2A or PDE10 protein expressed upon baculovirus infection in SF9 cells. The cells were incubated after infection for ˜3 days and protein production was confirmed by Western Blot. The cells were collected by centrifugation and the pellet frozen in liquid nitrogen before it was resuspended in PBS containing 1% Triton X-100 and protease inhibitors. After 45 min incubation on ice, the cell debris was removed by centrifugation (13.000 rpm, 30 min).
(§3) All reactions were performed in 384 well plates, Perkin Elmer black optiplates and IMAP reaction buffer with 0.1% Tween20 (kit component)
(§4) Compounds were serial diluted in DMSO. With an intermediate dilution step with reaction buffer DMSO concentration was reduced to achieve 1% DMSO in the assay reaction. Setup of the assay started with 10 μl enzyme (˜10 ng/well, depending on prep. batch), 5 μl compound, reaction was started by addition of 5 μl labeled cAMP (30 nM, final concentration), immediately mixed for 15 seconds on a Eppendorf mixmate (2000 rpm) followed by an incubation at room temperature for 90 minutes in the dark. Reaction is stopped by adding of 60 μl binding buffer for FP/cAMP (kit component).
(§5) Each assay plate contained wells with vehicle controls (1% DMSO) for the measurement of non-inhibited reaction (=100% control) and wells without enzyme as 0% controls.

PDE10 = PDE10 (Homo sapiens (Human), UniProt Q9Y233); assay: Phosphodiesterase (PDE) 10 assay with fluorescent substrate (IMAP, fluorescence polarization); format: biochemical; details: labeled cAMP 30 nM
Chain of PDE10 (Q9Y233 whole entry): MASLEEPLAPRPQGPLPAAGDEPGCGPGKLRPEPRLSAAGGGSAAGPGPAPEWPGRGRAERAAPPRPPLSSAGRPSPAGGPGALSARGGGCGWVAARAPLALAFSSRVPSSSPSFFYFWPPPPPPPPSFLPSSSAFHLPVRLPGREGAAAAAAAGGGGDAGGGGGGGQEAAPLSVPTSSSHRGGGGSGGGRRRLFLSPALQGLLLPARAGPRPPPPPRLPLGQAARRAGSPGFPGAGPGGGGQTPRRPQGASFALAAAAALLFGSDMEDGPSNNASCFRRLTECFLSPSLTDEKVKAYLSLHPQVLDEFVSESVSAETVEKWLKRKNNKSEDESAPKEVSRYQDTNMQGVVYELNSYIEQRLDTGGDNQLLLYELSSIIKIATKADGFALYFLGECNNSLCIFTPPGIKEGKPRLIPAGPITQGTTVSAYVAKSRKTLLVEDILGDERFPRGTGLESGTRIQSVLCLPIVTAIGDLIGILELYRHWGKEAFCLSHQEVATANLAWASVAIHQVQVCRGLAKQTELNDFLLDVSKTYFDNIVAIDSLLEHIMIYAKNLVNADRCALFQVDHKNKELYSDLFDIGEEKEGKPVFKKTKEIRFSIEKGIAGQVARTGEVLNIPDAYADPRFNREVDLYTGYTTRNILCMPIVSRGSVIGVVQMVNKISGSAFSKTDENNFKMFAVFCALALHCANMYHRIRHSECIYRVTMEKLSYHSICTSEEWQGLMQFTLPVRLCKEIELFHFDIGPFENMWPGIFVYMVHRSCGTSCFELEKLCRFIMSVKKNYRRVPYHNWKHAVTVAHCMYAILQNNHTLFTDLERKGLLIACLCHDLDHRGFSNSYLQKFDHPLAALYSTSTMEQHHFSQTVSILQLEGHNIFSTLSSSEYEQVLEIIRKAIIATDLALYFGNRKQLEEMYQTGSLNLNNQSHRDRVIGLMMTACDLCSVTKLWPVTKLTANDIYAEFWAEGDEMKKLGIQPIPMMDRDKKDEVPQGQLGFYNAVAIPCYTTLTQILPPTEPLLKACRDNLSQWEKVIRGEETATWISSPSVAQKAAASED
Method: as §1, §2, §3, §4, §5

Chain of PDE 2A (O00408 whole entry, species assumed): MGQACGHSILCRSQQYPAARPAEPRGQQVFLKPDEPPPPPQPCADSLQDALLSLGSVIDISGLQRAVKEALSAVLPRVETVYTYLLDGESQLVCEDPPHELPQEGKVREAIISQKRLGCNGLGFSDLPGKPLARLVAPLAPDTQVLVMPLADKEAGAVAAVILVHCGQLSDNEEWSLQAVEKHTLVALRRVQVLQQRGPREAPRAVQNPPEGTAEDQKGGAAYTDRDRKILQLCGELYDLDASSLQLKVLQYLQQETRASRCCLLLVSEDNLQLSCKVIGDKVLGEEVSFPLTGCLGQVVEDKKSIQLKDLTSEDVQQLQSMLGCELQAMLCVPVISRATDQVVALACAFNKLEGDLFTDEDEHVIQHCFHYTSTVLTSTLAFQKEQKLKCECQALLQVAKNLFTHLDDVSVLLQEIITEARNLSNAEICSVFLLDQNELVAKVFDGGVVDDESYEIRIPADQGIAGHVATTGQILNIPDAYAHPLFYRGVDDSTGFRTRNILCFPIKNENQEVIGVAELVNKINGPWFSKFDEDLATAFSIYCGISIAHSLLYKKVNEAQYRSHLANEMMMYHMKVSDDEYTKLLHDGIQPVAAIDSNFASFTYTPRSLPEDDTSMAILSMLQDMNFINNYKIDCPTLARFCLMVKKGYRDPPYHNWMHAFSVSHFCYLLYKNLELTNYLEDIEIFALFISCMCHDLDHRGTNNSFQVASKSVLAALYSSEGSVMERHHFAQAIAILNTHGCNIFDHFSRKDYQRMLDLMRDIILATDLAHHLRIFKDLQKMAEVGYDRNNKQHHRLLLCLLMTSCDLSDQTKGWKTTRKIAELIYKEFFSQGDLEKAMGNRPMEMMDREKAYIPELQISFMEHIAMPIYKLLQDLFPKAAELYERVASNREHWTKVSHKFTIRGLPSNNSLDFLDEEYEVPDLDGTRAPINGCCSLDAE

| SMILES | IC50 (PDE 2A) [nM] | IC50 (PDE10) [nM] |
| --- | --- | --- |
| O=C(NC1(c2ccc(C(F)(F)F)nc2)CCOCC1)c1cnn2cc(C3CC3)cnc12 [Example 27] | 534 | > 10000 |
| Cc1cnc2c(C(=O)NC3(c4ncc(C(F)(F)F)cc4F)CCOCC3O)cnn2c1 (racemic) [Example 56] | 229 | > 10000 |
| Cc1cnc2c(C(=O)NC3(c4ccc(C(F)(F)F)nc4)CCOCC3)c(C)nn2c1 [Example 26] | 174 | > 10000 |
| Cc1nn2cc(C3CC3)cnc2c1C(=O)NC1(c2ncc(C(F)(F)F)cc2F)CCOCC1O (racemic) [Example 61] | 19 | 6650 |
| Cc1nn2cc(C3CC3)cnc2c1C(=O)NC1(c2ccc3ccccc3n2)CCOCC1 [Example 11] | 297 | 1470 |
| Cc1cnc2c(C(=O)NC3(c4ccc(C(F)(F)F)nc4)CCOCC3O)cnn2c1 (single isomer, unassigned) [Example 87a] | 1000 | > 10000 |
| O=C(NC1(c2ccc(C(F)(F)F)nc2)CCOCC1O)c1cnn2cc(C3CC3)cnc12 (single isomer, unassigned) [Example 89a] | 1000 | > 10000 |
| Cc1cnc2c(C(=O)NC3(c4ccc(C(F)(F)F)cc4F)CCOCC3=O)cnn2c1 (centres unmarked) [Example 67] | 50 | > 10000 |
| Cc1cnc2c(C(=O)NC3(c4ccc(C(F)(F)F)cc4)CCOCC3)cnn2c1 [Example 9] | 117 | > 10000 |
| Cc1cnc2c(C(=O)NC3(c4ccc(C(F)(F)F)cc4F)COCC3(C)O)cnn2c1 (single isomer, unassigned) [Example 92b] | – | > 10000 |
| Cc1nn2cc(C3CC3)cnc2c1C(=O)NC1(c2ccc(C(F)(F)F)cn2)CCOCC1O (racemic) [Example 65] | 30 | 9760 |
| Cc1cnc2c(C(=O)NC3(c4ccc(Cl)cc4F)CCOCC3)c(C)nn2c1 [Example 4] | 48 | 550 |
| Cc1cnc2c(C(=O)NC3(c4ccc(C(F)(F)F)cc4F)COCC3(C)O)cnn2c1 (single isomer, unassigned) [Example 92a] | – | > 10000 |
| Cc1cnc2c(C(=O)NC3(c4ccc(C(F)(F)F)cc4F)COCC3O)cnn2c1 (single isomer, unassigned) [Example 74] | – | > 10000 |
| Cc1cnc2c(C(=O)NC3(c4ncc(C(F)(F)F)cc4F)CCOCC3)c(C)nn2c1 [Example 18] | 129 | 8630 |
| O=C(NC1(c2ccc(OC(F)(F)F)cc2)CCCOC1)c1cnn2cc(C3CC3)cnc12 (racemic) [Example 33] | 83 | > 10000 |
| O=C(NC1(c2ccc(Cl)c(F)c2)CCOCC1)c1cnn2cc(C3CC3)cnc12 [Example 16] | 537 | > 10000 |
| O=C(NC1(c2ccc(F)cc2Cl)CCOCC1)c1cnn2cc(C3CC3)cnc12 [Example 6] | 199 | > 10000 |

| SMILES | IC50 (PDE 2A) [nM] | IC50 (PDE10) [nM] |
| --- | --- | --- |
| Cc1cnc2c(C(=O)NC3(c4ccc(Cl)cc4F)CCOCC3)cnn2c1 [Example 5] | 258 | 12200 |
| Cc1cnc2c(C(=O)NC3(c4ccc(OC(F)F)c(F)c4)CCOCC3)cnn2c1 [Example 15] | 746 | > 10000 |
| Cc1cnc2c(C(=O)NC3(c4ccc(C(F)(F)F)cn4)CCOCC3O)cnn2c1 (racemic) [Example 64] | 496 | > 10000 |
| O=C(N[C@]1(c2ccc(C(F)(F)F)cc2F)CCOC[C@H]1O)c1cnn2cc(C3CC3)cnc12 (racemic) [Example 48] | 1.35 | 6620 |
| Cc1nn2cc(C3CC3)cnc2c1C(=O)NC1(c2cnc(C(F)(F)F)c(F)c2)CCOCC1 [Example 29] | 661 | 5930 |
| O=C(NC1(c2ccc(C(F)(F)F)cn2)CCOCC1O)c1cnn2cc(C3CC3)cnc12 (racemic) [Example 63] | 124 | > 10000 |
| O=C(NC1(c2ccc(OC(F)F)c(F)c2)CCOCC1)c1cnn2cc(C3CC3)cnc12 [Example 14] | 456 | 8430 |
| O=C(NC1(c2ccc(Cl)cc2F)CCOCC1)c1cnn2cc(C3CC3)cnc12 [Example 7] | 77 | 9110 |
| O=C(NC1(c2ncc(C(F)(F)F)cc2F)CCOCC1)c1cnn2cc(C3CC3)cnc12 [Example 20] | 172 | > 10000 |
| Cc1cnc2c(C(=O)NC3(c4ccc(C(F)(F)F)nc4)CCOCC3)cnn2c1 [Example 28] | 834 | > 10000 |
| Cc1cnc2c(C(=O)NC3(c4ccc(C(F)(F)F)cc4F)COCC3(C)O)cnn2c1 (single isomer, unassigned) [Example 93b] | – | > 10000 |
| Cc1cnc2c(C(=O)NC3(c4ccc(C(F)(F)F)cc4)CCOC3)cnn2c1 (racemic) [Example 36] | – | > 10000 |
| O=C(NC1(c2ccc(C(F)(F)F)cn2)CCOCC1)c1cnn2cc(C3CC3)cnc12 [Example 23] | 232 | > 10000 |
| Cc1cnc2c(C(=O)NC3(c4ncc(C(F)(F)F)cc4F)CCOCC3)cnn2c1 [Example 19] | 519 | > 10000 |
| Cc1cnc2c(C(=O)NC3(c4ccc(C(F)(F)F)cc4F)COCC3O)cnn2c1 (single isomer, unassigned) [Example 72] | – | > 10000 |
| Cc1cnc2c(C(=O)NC3(c4ccc(C(F)(F)F)cc4F)CCOCC3O)cnn2c1 (racemic) [Example 47] | – | > 10000 |
| Cc1cnc2c(C(=O)NC3(c4ccc(C(F)(F)F)cc4F)COCC3O)cnn2c1 (single isomer, unassigned) [Example 75] | – | > 10000 |

Further lines, results first:

| IC50 (PDE 2A) [nM] | IC50 (PDE10) [nM] | SMILES |
| --- | --- | --- |
| 331 | 6710 | O=C(NC1(c2ccc(Cl)cc2F)CCOC1)c1cnn2cc(C3CC3)cnc12 (racemic) [Example 38] |
| 200 | 8590 | Cc1nn2cc(C3CC3)cnc2c1C(=O)NC1(c2ncc(C(F)(F)F)cc2F)CCOCC1O (single isomer, unassigned) [Example 90a] |
| 67 | > 10000 | O=C(NC1(c2ccc(C(F)(F)F)cc2)CCCOC1)c1cnn2cc(C3CC3)cnc12 (racemic) [Example 32] |
| 40 | 8460 | O=C(NC1(c2ccc(C(F)(F)F)cc2F)CCOCC1O)c1cnn2cc(C3CC3)cnc12 (single isomer, unassigned) [Example 82b] |
| 25 | > 10000 | O=C(NC1(c2ccc(C(F)(F)F)cc2F)CCOCC1=O)c1cnn2cc(C3CC3)cnc12 (centres unmarked) [Example 66] |
| 69 | > 10000 | O=C(NC1(c2ccc(C(F)(F)F)cc2)CCOCC1)c1cnn2cc(C3CC3)cnc12 [Example 8] |
| 1650 | > 10000 | Cc1cnc2c(C(=O)NC3(c4ccc5ccccc5n4)CCOCC3)cnn2c1 [Example 12] |
| 14 | 7350 | Cc1nn2cc(C3CC3)cnc2c1C(=O)NC1(c2ncc(C(F)(F)F)cc2F)CCOCC1O (single isomer, unassigned) [Example 90b] |
| 127 | – | Cc1nn2cc(C3CC3)cnc2c1C(=O)NC1(c2ncc(C(F)(F)F)cc2F)CCOCC1(C)O (racemic) [Example 62] |
| 70 | > 10000 | O=C(N[C@]1(c2ccc(C(F)(F)F)cc2F)CCOC[C@@H]1O)c1cnn2cc(C3CC3)cnc12 (racemic) [Example 49] |
| – | > 10000 | Cc1cnc2c(C(=O)NC3(c4ccc(C(F)(F)F)cc4F)COCC3(C)O)cnn2c1 (single isomer, unassigned) [Example 93a] |
| 103 | > 10000 | O=C(NC1(c2ncc(C(F)(F)F)cc2F)CCOCC1O)c1cnn2cc(C3CC3)cnc12 (racemic) [Example 57] |
| 27 | 10800 | O=C(NC1(c2ccc(C(F)(F)F)cc2F)CCOC1)c1cnn2cc(C3CC3)cnc12 (racemic) [Example 34] |
| 754 | > 10000 | Cc1cnc2c(C(=O)NC3(c4ccc(C(F)(F)F)cn4)CCOCC3)cnn2c1 [Example 24] |
| 184 | – | Cc1cnc2c(C(=O)NC3(c4ccc(C(F)(F)F)nc4)CCOCC3O)cnn2c1 (single isomer, unassigned) [Example 87b] |
| – | > 10000 | Cc1cnc2c(C(=O)NC3(c4ccc(C(F)(F)F)cc4F)COCC3O)cnn2c1 (single isomer, unassigned) [Example 73] |
| 840 | – | Cc1cnc2c(C(=O)NC3(c4ccc(C(F)(F)F)cn4)CCOC3)c(C)nn2c1 (racemic) [Example 44] |
| 130 | 5590 | Cc1nn2cc(C3CC3)cnc2c1C(=O)NC1(c2ccc(C(F)(F)F)nc2)CCOC1 (racemic) [Example 42] |
| 359 | 9910 | O=C(NC1(c2ccc(Br)cc2)CCOCC1)c1cnn2cc(C3CC3)cnc12 [Example 13] |
| 231 | > 10000 | O=C(NC1(c2ccc(C(F)(F)F)nc2)CCOCC1O)c1cnn2cc(C3CC3)cnc12 (racemic) [Example 52] |
| – | > 10000 | Cc1cnc2c(C(=O)NC3(c4ccc(C(F)(F)F)cc4F)COCC3(C)O)cnn2c1 (centres unmarked) [Example 58] |
